In the NIST ThermoML archive (doi:10.1016/j.jct.2017.06.001):
Numbers after ± are expanded uncertainties.

Key:
[1] = 100 kPa, Liquid; for mass density: Vibrating tube method; for speed of sound: Frequency=5 MHz, Pulse-echo method
[2] = xn = mol fraction of the nth substance listed; details: 100 kPa, Liquid, x2 = 0; for mass density: Vibrating tube method; for speed of sound: Frequency=5 MHz, Pulse-echo method

OCCCCCO [1,5-pentanediol]
[1]
Details	mass density [kg/m3]	speed of sound [m/s]
278.15 K	998 ± 2.1	–
283.15 K	995 ± 2.1	–
288.15 K	992.2 ± 2.1	1616.4 ± 2.3
293.15 K	989.3 ± 2.1	1605 ± 2.3
298.15 K	986.5 ± 2.1	1593.8 ± 2.3
303.15 K	983.6 ± 2.1	1582.5 ± 2.3
308.15 K	980.7 ± 2.1	1571.3 ± 2.3
313.15 K	977.8 ± 2.1	1560.2 ± 2.3
318.15 K	974.9 ± 2.1	1549 ± 2.3
323.15 K	971.9 ± 2.1	–
328.15 K	969 ± 2.1	–
333.15 K	965.9 ± 2.1	–

O [water] + OCCCCCO
[2]
Details	mass density [kg/m3]	speed of sound [m/s]
278.15 K	999.97 ± 0.16	–
283.15 K	999.7 ± 0.16	–
308.15 K	–	1519.2 ± 1.1
313.15 K	–	1528.8 ± 1.2
318.15 K	–	1536.7 ± 1.2
323.15 K	988.03 ± 0.16	–
328.15 K	985.68 ± 0.16	–
333.15 K	983.19 ± 0.16	–
